Measurements taken from the supplement of paper PMC10331698.
± gives the standard deviation of the averaged measurements.

Columns and labels:
Assay in all cases: level (log10 ratio to DMSO vehicle control); higher = higher biomarker level / cell amount than vehicle control
[1] = compound: O=S(=O)(O)CCC(F)(F)C(F)(F)C(F)(F)C(F)(F)C(F)(F)C(F)(F)F [6:2 Fluorotelomer sulfonic acid]; conditions: in DMSO
Method: (§1)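 BioMAP Diversity Plus panel of 12 human primary cell co-culture systems (3C, 4H, LPS, SAg, BT, BF4T, BE3C, CASM3C, HDF3CGF, KF3CT, MyoF, Mphg). Compounds were added 1 h before stimulation and left for 24 h (MyoF 48 h; BT 72 h for soluble read-outs or 6 d for IgG). Biomarkers were read by ELISA, cytotoxicity by SRB, PBMC viability and proliferation by Alamar Blue. Each well value was divided by the mean of 8 DMSO control wells on the same plate and log10 transformed; duplicate blinded samples were tested at 4 concentrations.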

[2] = compound: O=S(=O)(Cl)C(F)(F)C(F)(F)C(F)(F)C(F)(F)C(F)(F)C(F)(F)C(F)(F)C(F)(F)F [Perfluoro-1-octanesulfonyl chloride]; conditions: in DMSO
Method: as §1

Heptafluorobutyl iodide = compound: FC(F)(F)C(F)(F)C(F)(F)CI [Heptafluorobutyl iodide]; conditions: in DMSO
Method: as §1

[3] = compound: O=S(=O)(F)C(F)(F)C(F)(F)C(F)(F)C(F)(F)C(F)(F)C(F)(F)C(F)(F)C(F)(F)F [Perfluorooctanesulfonyl fluoride]; conditions: in DMSO
Method: as §1

[4] = compound: FC(F)(F)C(F)(F)C(F)(F)CC1CO1 [1H,1H-Heptafluorobutyl epoxide]; conditions: in DMSO
Method: as §1

Hexafluoroamylene glycol = compound: OCC(F)(F)C(F)(F)C(F)(F)CO [Hexafluoroamylene glycol]; conditions: in DMSO
Method: as §1

[5] = compound: O=S(=O)(O)C(F)(F)C(F)(F)C(F)(F)C(F)(F)C(F)(F)C(F)(F)C(F)(F)C(F)(F)C(F)(F)C(F)(F)F [Sodium perfluorodecanesulfonate]; conditions: in DMSO
Method: as §1

[6] = compound: FC(F)(F)C(F)(F)C(F)(F)C(F)(F)C(F)(F)C(F)(F)C(F)(F)I [1-Iodopentadecafluoroheptane]; conditions: in DMSO
Method: as §1

[7] = compound: FC(F)(F)C(F)(F)C(F)(F)C(F)(F)C(F)(F)C(F)(F)CC1CO1 [3-(Perfluorohexyl)-1,2-epoxypropane]; conditions: in DMSO
Method: as §1

Octafluoroadipamide = compound: NC(=O)C(F)(F)C(F)(F)C(F)(F)C(F)(F)C(N)=O [Octafluoroadipamide]; conditions: in DMSO
Method: as §1

[8] = compound: C=CC(=O)OCC(F)(F)C(F)(F)C(F)(F)COC(=O)C=C [1H,1H,5H,5H-Perfluoro-1,5-pentanediol diacrylate]; conditions: 6700 nM; in DMSO
Method: as §1

[9] = compound: FC(F)(F)C(F)(F)CNCC(F)(F)C(F)(F)F [Bis(1H,1H-perfluoropropyl)amine]; conditions: in DMSO
Method: as §1

[10] = compound: NC(=O)C(F)(F)C(F)(F)C(F)(F)C(F)F; conditions: in DMSO
Method: as §1

[11] = compound: O=C(O)C=CC(F)(C(F)(F)F)C(F)(F)F [3-(Perfluoroisopropyl)-2-propenoic acid]; conditions: in DMSO
Method: as §1

Nonafluoropentanamide = compound: NC(=O)C(F)(F)C(F)(F)C(F)(F)C(F)(F)F [Nonafluoropentanamide]; conditions: in DMSO
Method: as §1

[12] = compound: O=C(O)C(F)(F)C(F)(F)C(F)(F)C(F)(F)C(F)(F)C(F)(F)C(F)(F)C(F)(F)C(F)(F)C(F)F [11-H-Perfluoroundecanoic acid]; conditions: in DMSO
Method: as §1

[13] = compound: NS(=O)(=O)C(F)(F)C(F)(F)C(F)(F)C(F)(F)C(F)(F)C(F)(F)F [Perfluorohexanesulfonamide]; conditions: in DMSO
Method: as §1

[14] = compound: COC(=O)C(F)(F)C(F)(F)OC(F)(C(F)(F)F)C(F)(F)OC(F)=C(F)F [Methyl perfluoro(3-(1-ethenyloxypropan-2-yloxy)propanoate)]; conditions: in DMSO
Method: as §1

[15] = compound: C=C(C)C(=O)OCCC(F)(F)C(F)(F)C(F)(F)C(F)(F)C(F)(F)C(F)(F)F [6:2 Fluorotelomer methacrylate]; conditions: in DMSO
Method: as §1

With lMphg:CD62E/E-Selectin the “level (log10)” value ([1]; 6700 nM) was -0.0225 ± 0.018, the “level (log10)” value ([1]; 20000 nM) was -0.039 ± 0.0071 and the “level (log10)” value ([1]; 60000 nM) was 0 ± 0.023. The “level (log10)” value ([2]; 6700 nM) was -0.0085 ± 0.0035, the “level (log10)” value ([2]; 20000 nM) was -0.0165 ± 0.037 and the “level (log10)” value ([2]; 60000 nM) was 0.073 ± 0.014. The “level (log10)” value (Heptafluorobutyl iodide; 6700 nM) was -0.0065 ± 0.011, the “level (log10)” value (Heptafluorobutyl iodide; 20000 nM) was -0.0065 ± 0.005 and the “level (log10)” value (Heptafluorobutyl iodide; 60000 nM) was 0.0085 ± 0.019. For the same test system, the “level (log10)” value ([3]; 6700 nM) was -0.0175 ± 0.013, the “level (log10)” value ([3]; 20000 nM) was -0.0205 ± 0.0035 and the “level (log10)” value ([3]; 60000 nM) was -0.028 ± 0.014. The “level (log10)” value ([4]; 6700 nM) was -0.001 ± 0.059, the “level (log10)” value ([4]; 20000 nM) was -0.005 ± 0.035 and the “level (log10)” value ([4]; 60000 nM) was 0.0525 ± 0.025. The “level (log10)” value (Hexafluoroamylene glycol; 6700 nM) was 0.002 ± 0.0057, the “level (log10)” value (Hexafluoroamylene glycol; 20000 nM) was -0.0215 ± 0.0092 and the “level (log10)” value (Hexafluoroamylene glycol; 60000 nM) was 0.0055 ± 0.025. For the same test system, the “level (log10)” value ([5]; 1500 nM) was -0.011 ± 0.0014, the “level (log10)” value ([5]; 4400 nM) was -0.0265 ± 0.028 and the “level (log10)” value ([5]; 13000 nM) was 0.0135 ± 0.018. For the same test system, the “level (log10)” value ([5]; 40000 nM) was 0.0205 ± 0.021, the “level (log10)” value ([6]; 6700 nM) was 0.016 ± 0.014 and the “level (log10)” value ([6]; 20000 nM) was 0.0355 ± 0.0078. For the same test system, the “level (log10)” value ([7]; 6700 nM) was -0.0155 ± 0.00071, the “level (log10)” value ([7]; 20000 nM) was 0.0055 ± 0.016 and the “level (log10)” value ([7]; 60000 nM) was -0.0045 ± 0.061. For the same test system, the “level (log10)” value (Octafluoroadipamide; 6700 nM) was 0.0095 ± 0.00071, the “level (log10)” value (Octafluoroadipamide; 20000 nM) was 0.002 ± 0.0042 and the “level (log10)” value (Octafluoroadipamide; 60000 nM) was 0.007 ± 0.016. For the same test system, the “level (log10)” value [8] was -0.0595 ± 0.00071, the “level (log10)” value ([9]; 6700 nM) was 0.0005 ± 0.0035 and the “level (log10)” value ([9]; 20000 nM) was -0.0185 ± 0.0078. For the same test system, the “level (log10)” value ([9]; 60000 nM) was 0.002 ± 0.02, the “level (log10)” value ([10]; 6700 nM) was -0.011 ± 0.038 and the “level (log10)” value ([10]; 20000 nM) was -0.021 ± 0.076. The “level (log10)” value ([10]; 60000 nM) was -0.037 ± 0.078, the “level (log10)” value ([11]; 6700 nM) was -0.0045 ± 0.012 and the “level (log10)” value ([11]; 20000 nM) was -0.002 ± 0.0099. The “level (log10)” value ([11]; 60000 nM) was 0.0205 ± 0.0035, the “level (log10)” value (Nonafluoropentanamide; 6700 nM) was -0.0115 ± 0.021 and the “level (log10)” value (Nonafluoropentanamide; 20000 nM) was -0.009 ± 0.03. For the same test system, the “level (log10)” value (Nonafluoropentanamide; 60000 nM) was -0.011 ± 0.0028, the “level (log10)” value ([12]; 6700 nM) was -0.025 ± 0.023 and the “level (log10)” value ([12]; 20000 nM) was -0.028 ± 0.034. The “level (log10)” value ([13]; 6700 nM) was -0.02 ± 0.031, the “level (log10)” value ([13]; 20000 nM) was -0.061 ± 0.0014 and the “level (log10)” value ([13]; 60000 nM) was -0.191 ± 0.013. For the same test system, the “level (log10)” value ([14]; 6700 nM) was 0.011 ± 0.052, the “level (log10)” value ([14]; 20000 nM) was 0.018 ± 0.027 and the “level (log10)” value ([15]; 6700 nM) was -0.0005 ± 0.015. For the same test system, the “level (log10)” value ([15]; 20000 nM) was -0.003 ± 0.048 and the “level (log10)” value ([15]; 60000 nM) was -0.0135 ± 0.011.

In the case of SAg:CD40, the “level (log10)” value ([1]; 6700 nM) is reported as -0.0275 ± 0.046, the “level (log10)” value ([1]; 20000 nM) is reported as -0.0285 ± 0.064 and the “level (log10)” value ([1]; 60000 nM) is reported as -0.053 ± 0.035. For the same test system, the “level (log10)” value ([2]; 6700 nM) was 0.002 ± 0.0071, the “level (log10)” value ([2]; 20000 nM) was -0.015 ± 0.0028 and the “level (log10)” value ([2]; 60000 nM) was -0.078 ± 0.034. For the same test system, the “level (log10)” value (Heptafluorobutyl iodide; 6700 nM) was -0.027 ± 0.011, the “level (log10)” value (Heptafluorobutyl iodide; 20000 nM) was -0.0445 ± 0.016 and the “level (log10)” value (Heptafluorobutyl iodide; 60000 nM) was -0.024 ± 0.016. The “level (log10)” value ([3]; 6700 nM) was 0.002 ± 0.0071, the “level (log10)” value ([3]; 20000 nM) was -0.003 ± 0.0071 and the “level (log10)” value ([3]; 60000 nM) was -0.012 ± 0.0014. The “level (log10)” value ([4]; 6700 nM) was -0.01 ± 0.034, the “level (log10)” value ([4]; 20000 nM) was -0.0015 ± 0.0064 and the “level (log10)” value ([4]; 60000 nM) was -0.0235 ± 0.013. The “level (log10)” value (Hexafluoroamylene glycol; 6700 nM) was -0.0285 ± 0.03, the “level (log10)” value (Hexafluoroamylene glycol; 20000 nM) was -0.011 ± 0.044 and the “level (log10)” value (Hexafluoroamylene glycol; 60000 nM) was -0.0215 ± 0.04. The “level (log10)” value ([5]; 1500 nM) was -0.0185 ± 0.032, the “level (log10)” value ([5]; 4400 nM) was -0.042 ± 0.025 and the “level (log10)” value ([5]; 13000 nM) was -0.103 ± 0.055. The “level (log10)” value ([5]; 40000 nM) was -0.212 ± 0.055, the “level (log10)” value ([6]; 6700 nM) was -0.0065 ± 0.013 and the “level (log10)” value ([6]; 20000 nM) was -0.007 ± 0.0085. For the same test system, the “level (log10)” value ([7]; 6700 nM) was -0.008 ± 0.013, the “level (log10)” value ([7]; 20000 nM) was -0.0135 ± 0.012 and the “level (log10)” value ([7]; 60000 nM) was -0.018 ± 0.013. For the same test system, the “level (log10)” value (Octafluoroadipamide; 6700 nM) was -0.002 ± 0.0028, the “level (log10)” value (Octafluoroadipamide; 20000 nM) was -0.001 ± 0.0014 and the “level (log10)” value (Octafluoroadipamide; 60000 nM) was -0.001 ± 0.024. For the same test system, the “level (log10)” value [8] was -0.14 ± 0.033, the “level (log10)” value ([9]; 6700 nM) was 0.011 ± 0.017 and the “level (log10)” value ([9]; 20000 nM) was 0.0025 ± 0.0064. The “level (log10)” value ([9]; 60000 nM) was -0.003 ± 0.02, the “level (log10)” value ([10]; 6700 nM) was -0.023 ± 0.0028 and the “level (log10)” value ([10]; 20000 nM) was -0.0155 ± 0.019. The “level (log10)” value ([10]; 60000 nM) was -0.02 ± 0.028, the “level (log10)” value ([11]; 6700 nM) was -0.006 ± 0.058 and the “level (log10)” value ([11]; 20000 nM) was -0.005 ± 0.04. The “level (log10)” value ([11]; 60000 nM) was -0.038 ± 0.014, the “level (log10)” value (Nonafluoropentanamide; 6700 nM) was -0.0145 ± 0.033 and the “level (log10)” value (Nonafluoropentanamide; 20000 nM) was 0.0055 ± 0.013. For the same test system, the “level (log10)” value (Nonafluoropentanamide; 60000 nM) was 0.002 ± 0.018, the “level (log10)” value ([12]; 6700 nM) was -0.024 and the “level (log10)” value ([12]; 20000 nM) was -0.0355 ± 0.012. The “level (log10)” value ([13]; 6700 nM) was -0.025 ± 0.017, the “level (log10)” value ([13]; 20000 nM) was -0.064 ± 0.0057 and the “level (log10)” value ([13]; 60000 nM) was -0.172 ± 0.0064. For the same test system, the “level (log10)” value ([14]; 6700 nM) was -0.0045 ± 0.021, the “level (log10)” value ([14]; 20000 nM) was -0.0045 ± 0.081 and the “level (log10)” value ([15]; 6700 nM) was -0.024 ± 0.04. For the same test system, the “level (log10)” value ([15]; 20000 nM) was -0.0255 ± 0.028 and the “level (log10)” value ([15]; 60000 nM) was -0.0315 ± 0.012.
